# In patent US9060997B2, “Antifolate compounds for the treatment of melanoma” (UNIVERSIDAD DE MURCIA, priority 2007, dated 2015):
# pIC50: −log10 of the molar value.
# Legend:
# [1] = tested on: FRα mRNA; assay: FRα expression in SkMel-28 (real-time PCR, RT-PCR); assay type: cell-based, human; conditions: SkMel-28, 50 μM
# Description: PolyA+ mRNA from human adult skin was purchased from Invitrogen. SkMel-28 and HEM polyA+ mRNA was extracted from 5×10^6 cells using the Illustra Quick Prep Micro mRNA purification kit (GE Healthcare). mRNA (200 ng) was used to synthesize cDNA using SuperScript First-Strand Synthesis System (Invitrogen). PCR amplification of 2 μL of the cDNA strand generated was carried out in a total volume of 50 μL using an Eppendorf Mastercycler Thermal Cycler. Samples were amplified by 40 cycles at 95° C. (1 min), 62° C. (1 min) and 72° C. (1 min). The amplified PCR products were subjected to electrophoresis in 3% agarose gel and stained with ethidium bromide.
# Primers were designer using Primer Express version 2.0 software (Applied Biosystems, Foster City, Calif.) and synthesized by Invitrogen. […] Amplification of target gene sequences were compared against serial dilutions of know quantities of their purified cDNA fragments, and normalized to the abundance of the house-keeping gene β-actin.
# [2] = tested on: Caco-2 and SkMel-28 cells; assay: Cellular uptake of ECG, TMECG and QM; assay type: in vitro ADME, human; conditions: 50 μM catechins
# Description: Cellular uptake was determined by the difference between the initial concentration of catechin and the calculated at specific times in the cellular medium, and expressed as a percentage of catechin at zero time. The values presented are the mean percentage determined from five independent experiments±SD.
# For cellular uptake experiments Caco-2 and SkMel-28 cells were grown until reaching 90% confluence. Then, 20 ml of cellular medium containing 50 μM catechins and 0.2 mM ascorbic acid was added and incubated for 60 h in a CO2 incubator. At specified times 1 ml-aliquots were taken and frozen in liquid N2 until the catechin concentrations were determined by HPLC. Catechins were identified by their characteristic elution times and their concentration calculated with respect to calibration curves of known concentrations of catechins.
# [3] = tested on: SkMel-28 cells; assay: Microscopy of melanosome melanin content; assay type: cell-based, human; conditions: treated SkMel-28 versus untreated
# Description: Confluent monolayers of SkMel-28 were harvested with a mixture of 0.05% trypsin, 0.53 mmol/L EDTA and washed once in 0.25 mol/L sucrose by centrifugation at 700×g for 5 min at 4° C. They were then homogenized on ice using 20 strokes of an ice-cold Dounce homogenizer and centrifuged at 700×g for 10 min at 4° C. The resultant postnuclear supernatant was centrifuged at 17,000×g for 15 min at 4° C. to yield a melanosome-enriched granular fraction (17). This fraction was resuspended in 0.5-2 ml of ice-cold 0.25 mol/L sucrose, 10 mmol/L HEPES, pH 7.0 and fixed for 1 h at room temperature in 2% glutaraldehyde, 2% paraformaldehyde in 0.1 mol/L sodium cacodylate buffer, pH 7.3. The fixative was then removed and the samples stored in PBS containing 4% sucrose at 4° C. Samples were subsequently dehydrated with graded alcohols and embedded in epoxy resin. This section were stained with uranyl acetate and lead citrate and examined with a Zeiss EM10 electron microscope.
# [4] = tested on: Caspase-3; assay: Caspase-3 colorimetric activity assay; assay type: cell-based, human; conditions: SkMel-28, 50 μM, 7 days
# Description: Cells were treated for 7 days with 50 μM TMECG. Caspase-3 activity was determined in the absence or the presence of […]. The results are expressed as the mean±SD of three cultures.
# Caspase-3 activity in the SkMel-28 cells was measured using the caspase-3 colorimetric activity assay kit (Sigma). Briefly, the cells were washed with cold PBS and lysed with cell lysis buffer included in the kit. The cell lysates were centrifuged (10,000 g for 5 min at 4° C.), and the supernatants were collected. Equal amounts of protein (100 μg), 30 μg of colorimetric caspase-3 substrate (acetyl-Asp-Glu-Val-Asp p-Nitroanilide; Ac-[…]-pNA) and assay buffer were added to each reaction mix, which were then incubated for 4 h at 37° C. Caspase-3 activity was determined by measuring the absorbance at 405 nm. One unit of caspase-3 activity was expressed as 1 pmol of pNA formed per hour, and its specific activity was that unit divided by micrograms of protein. Caspase-3 inhibitor ([…]) was used as negative control.
# [5] = tested on: SkMel-28 cells; assay: MTT cell proliferation assay, SkMel-28; assay type: cell-based, human
# Description: Four human cancer cells lines (SkMel-28, MCF7, H1264 and Caco-2) were obtained from the American Type Tissue Culture Collection (ATCC) and were maintained in appropriate culture mediums supplemented with 10% fetal calf serum (FCS) and antibiotics, under standard tissue culture conditions (e.g. modified Eagle's medium (MEM) containing 1 mM sodium pyruvate and 10% fetal bovine serum (FES) under 5% CO2/95% air atmosphere.). Cell injury was evaluated by a colorimetric assay for mitochondrial function using the 3-(4,5-dimethylthiazolyl-2)-2,5-diphenyltetrazolium bromide (MTT) cell proliferation assay. For this assay cells were plated in a 96-well plate at a density of 1000 cells/well and grown until they reached 50-60% confluence. Human epidermal melanocytes (HeM) were supplied by Gentaur and were cultured in HAM-F10 medium supplemented with 10% FCS, antibiotics and the human melanocyte growth supplement (Gentaur).
# Cell injury was evaluated by a colorimetric assay for mitochondrial function using the 3-(4,5-dimethylthiazolyl-2)-2,5-diphenyltetrazolium bromide (MTT) cell proliferation assay. For this assay cells were plated in a 96-well plate at a density of 1000 cells/well and grown until they reached 30% confluence. Co-treatments of SkMel-28 cells with TMECG and other reagents were carried out by supplementing medium cultures with S-adenosylmethionine (SAM), adenosine or dipyridamole (all from Sigma).
smiles,measurement,setting,value
"COc1cc(C(=O)O[C@@H]2Cc3c(O)cc(O)cc3O[C@@H]2c2ccc(O)c(O)c2)cc(OC)c1OC [TMECG, 3-O-(3,4,5-trimethoxybenzoyl)-(−)-epicatechin]",mature FRα mRNA (RT-PCR),[1]; 3 days,partially restored the levels of mature FRα mRNA
same,"FRα expression (exon 5 region, real-time PCR)",[1]; 5 days of treatment,no apparent effect on its expression
same,cellular uptake / membrane transport,[2],"greater than the uptake of its related natural catechin, ECG"
same,melanosome melanin content,[3],much less melanin content
same,caspase-3 activity,[4],significantly higher caspase-3 activity
same,effect of leucovorin co-treatment on growth inhibition,"[5]; 100 μM leucovorin, MTX 1 μM or TMECG 50 μM, 3 days",did not
same,inhibition at 50 µM,"[5]; Homo sapiens, SK-MEL-28, 120 h, 50 μM, five days of treatment, read-out: growth of SkMel-28 inhibited",> 60%
same,pIC50,"[5]; Homo sapiens, SK-MEL-28, 144 h, SkMel-28, 6 days of treatment, read-out: IC50 (at 6 days)",5.54
same,effect of natural and synthetic catechins on SkMel-28 growth,[5]; SkMel-28,highly inhibited
same,DNA fragmentation (apoptosis),"[5]; SkMel-28, 50 μM, 7 days",visible after treatment
same,effect of sulfasalazine (RFC inhibitor) on antiproliferative action,"[5]; sulfasalazine 0.5 mM, MTX 0.2 μM or TMECG 10 μM, 3 days",enhancing TMECG antiproliferative activity
